The values that follow come from patent publication US12065443B2, “Compounds and pharmaceutical compositions thereof for the treatment of diseases” (priority 2017, dated 2024).

Each structure is given as a SMILES string.

One assay deals with T1, SIK3 (Homo sapiens, UniProt Q9Y2K2).
T1 construct: purchased SignalChem S12-11G-100
The experiment in a line: biochemical. A digest of the protocol:
(§1)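 Read-out: ^33P incorporated into AMARA peptide, counted on filter plates, taken as kinase activity. Reactions start on addition of labeled/unlabeled ATP to enzyme plus substrate and end with phosphoric acid. Controls: 1% DMSO (negative) and 10 μM staurosporine (positive), final.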

The next assay addresses T2, SIK2 (Homo sapiens, UniProt Q9H0K1).
T2 construct: purchased ThermoFisher Scientific PV4792
The experiment in a line: biochemical. As to conditions: 33P radioactive SIK kinase assay, AMARA peptide, 10 μM ATP. The procedure, abridged:
as §1

In the next assay the target is T3, SIK1 (Homo sapiens, UniProt P57059).
T3 construct: purchased Carna Biosciences 02-131
The experiment in a line: biochemical. As to conditions: 33P radioactive SIK kinase assay, AMARA peptide, 10 μM ATP; read-out: SIK1 IC50. A digest of the protocol:
as §1

Assay [1] concerns LPS triggered IL-10 secretion in monocyte-derived macrophages (MdM). The experiment in a line: MdM assay: LPS-triggered IL-10 (ELISA). It is filed as cell-based, human. As to conditions: maximal fold change vs LPS only, median across assays. The procedure, abridged:
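CD14+ monocytes isolated from human buffy-coat PBMCs and differentiated to macrophages for 10 days. Cells pre-treated with compound 1 h at 37° C (0.2% DMSO), then stimulated with 200 ng/mL LPS; IL-10 in supernatant at 2 h measured by ELISA (A450). Maximal fold change versus LPS only reported as median of two or more runs.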

The subject of assay [2] is LPS driven TNFα secretion in Peripheral Blood Mononuclear Cells (PBMC). The experiment in a line: cells. It is filed as cell-based. As to conditions: Homo sapiens, LPS 1 ng/mL, supernatant after 18-20 h, ELISA. For orientation: In an ELISA, binding on a coated surface is turned into a signal by an enzyme label.
Description: This assay measures the inhibition of LPS driven TNFα secretion by a test compound in Peripheral Blood Mononuclear Cells (PBMC), which in turn correlates with SIK inhibition.
PBMCs are isolated from human blood samples (buffy coats). The buffy coat is aseptically transferred into a 50 mL Falcon™ tube, and diluted 1/2 in Phosphate Buffered Saline (PBS). […] The tubes are centrifuged for 35 min at 400× g in temperature controlled centrifuge, without brake, at 25° C. PBMCs are aspirated from the white interface layer between sample and Lymphoprep. PBMCs are washed five times in PBS. […] The PBMCs are finally seeded at 400,000 PBMC/160 μL/96-well.
A compound dilution plate is made in 100% DMSO by 3-fold dilution of 10 mM stock solution of test compound. An intermediate dilution plate (10× final concentration) is made by diluting the compound dilution plate 50-fold in RPMI medium.
20 μL of the 10× final concentration compound is added to the cells and incubated for 1 hour at 37° C. before addition of trigger. No trigger conditions/trigger conditions are spiked with equal final DMSO concentrations of 0.2% DMSO. 20 μL of 10×LPS (final concentration 1 ng/mL) solution are added to all wells except for the ‘no trigger wells’ where 20 μL medium is added. Supernatant is collected after 18-20 h for IL-10 and TNFα determination using ELISA.
The plate is then washed once with PBST (PBS+0.05% Tween20) and once with PBS followed by the addition of 100 μL of blocking buffer (1% Bovine Serum Albumin (BSA)-5% Sucrose) and plates are sealed and incubated for at least 4 h at RT. After washing the plate once with PBST and once with PBS, 40 μL of standard or sample are added (TNFα standard curve is prepared using a 1/2 serial dilution starting from 16000 pg/mL; dilutions are made in dilution buffer (PBS+1% BSA)). Plates are washed twice with PBST, and once with PBS, after which 35 μL of the detection antibody is added (final concentration 0.25 μg/mL diluted in dilution buffer) and plates are incubated for at least 2 h at RT. Plates are washed twice with PBST, and once with PBS, where after 35 μL of Strep-HRP conjugate (0.5 μg/mL final concentration diluted in dilution buffer) is added. Plates are incubated in the dark, at RT for at least 45 min but no longer than 1 hour. Plates are washed twice with PBST, and once with PBS. Thereafter, 50 μL of luminol substrate is added to each well (prepared according to manufacturer's instructions), and incubated for 5 min at RT protected from light.
To measure the inhibition of LPS induced TNFα, percentage inhibition (PIN) values are calculated for all concentrations tested, compared to controls.
PIN values are plotted in concentration-response and EC50 values are derived using GraphPad Prism Software, applying 4-parameter nonlinear regression (sigmoidal) curve fitting.
The subject of assay [3] is LPS-induced TNFα secretion in monocyte-derived macrophages (MdM). The experiment in a line: MdM assay: LPS-triggered TNFα (ELISA). In kind it is cell-based, human. As to conditions: Homo sapiens, Macrophage, LPS-triggered TNFα inhibition. The procedure, abridged:
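Human CD14+ monocytes isolated from buffy-coat PBMCs by magnetic beads, differentiated to macrophages; on day 10 compound preincubated 1 h at 37 °C, then LPS 200 ng/mL added (0.2% DMSO). Supernatant taken after 20 h; TNFα quantified by sandwich ELISA against standard curve.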

T2 sequence (Q9H0K1 whole entry): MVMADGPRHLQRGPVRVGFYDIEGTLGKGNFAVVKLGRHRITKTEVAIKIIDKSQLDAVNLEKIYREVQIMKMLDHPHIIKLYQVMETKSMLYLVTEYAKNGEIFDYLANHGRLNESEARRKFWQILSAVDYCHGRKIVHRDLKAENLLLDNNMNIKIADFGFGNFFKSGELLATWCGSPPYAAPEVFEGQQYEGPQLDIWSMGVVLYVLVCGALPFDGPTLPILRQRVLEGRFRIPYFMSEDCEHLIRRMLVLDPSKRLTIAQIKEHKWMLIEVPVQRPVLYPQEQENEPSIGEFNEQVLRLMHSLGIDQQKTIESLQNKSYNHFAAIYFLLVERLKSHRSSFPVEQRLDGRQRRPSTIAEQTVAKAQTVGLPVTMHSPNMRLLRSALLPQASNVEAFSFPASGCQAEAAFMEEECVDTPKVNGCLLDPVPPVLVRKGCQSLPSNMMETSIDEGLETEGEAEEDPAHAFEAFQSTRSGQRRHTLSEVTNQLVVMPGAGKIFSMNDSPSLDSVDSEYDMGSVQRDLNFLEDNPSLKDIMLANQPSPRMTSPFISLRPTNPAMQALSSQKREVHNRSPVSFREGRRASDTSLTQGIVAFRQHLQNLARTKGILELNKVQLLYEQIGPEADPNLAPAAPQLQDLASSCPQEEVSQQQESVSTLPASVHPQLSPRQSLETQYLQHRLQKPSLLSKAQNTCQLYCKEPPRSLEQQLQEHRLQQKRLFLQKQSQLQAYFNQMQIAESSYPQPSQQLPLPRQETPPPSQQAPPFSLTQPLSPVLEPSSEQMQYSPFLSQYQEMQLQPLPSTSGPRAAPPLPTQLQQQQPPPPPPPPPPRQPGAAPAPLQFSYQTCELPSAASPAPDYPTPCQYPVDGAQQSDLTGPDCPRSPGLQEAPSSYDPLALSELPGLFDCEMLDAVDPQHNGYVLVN
T1 sequence (Q9Y2K2 whole entry): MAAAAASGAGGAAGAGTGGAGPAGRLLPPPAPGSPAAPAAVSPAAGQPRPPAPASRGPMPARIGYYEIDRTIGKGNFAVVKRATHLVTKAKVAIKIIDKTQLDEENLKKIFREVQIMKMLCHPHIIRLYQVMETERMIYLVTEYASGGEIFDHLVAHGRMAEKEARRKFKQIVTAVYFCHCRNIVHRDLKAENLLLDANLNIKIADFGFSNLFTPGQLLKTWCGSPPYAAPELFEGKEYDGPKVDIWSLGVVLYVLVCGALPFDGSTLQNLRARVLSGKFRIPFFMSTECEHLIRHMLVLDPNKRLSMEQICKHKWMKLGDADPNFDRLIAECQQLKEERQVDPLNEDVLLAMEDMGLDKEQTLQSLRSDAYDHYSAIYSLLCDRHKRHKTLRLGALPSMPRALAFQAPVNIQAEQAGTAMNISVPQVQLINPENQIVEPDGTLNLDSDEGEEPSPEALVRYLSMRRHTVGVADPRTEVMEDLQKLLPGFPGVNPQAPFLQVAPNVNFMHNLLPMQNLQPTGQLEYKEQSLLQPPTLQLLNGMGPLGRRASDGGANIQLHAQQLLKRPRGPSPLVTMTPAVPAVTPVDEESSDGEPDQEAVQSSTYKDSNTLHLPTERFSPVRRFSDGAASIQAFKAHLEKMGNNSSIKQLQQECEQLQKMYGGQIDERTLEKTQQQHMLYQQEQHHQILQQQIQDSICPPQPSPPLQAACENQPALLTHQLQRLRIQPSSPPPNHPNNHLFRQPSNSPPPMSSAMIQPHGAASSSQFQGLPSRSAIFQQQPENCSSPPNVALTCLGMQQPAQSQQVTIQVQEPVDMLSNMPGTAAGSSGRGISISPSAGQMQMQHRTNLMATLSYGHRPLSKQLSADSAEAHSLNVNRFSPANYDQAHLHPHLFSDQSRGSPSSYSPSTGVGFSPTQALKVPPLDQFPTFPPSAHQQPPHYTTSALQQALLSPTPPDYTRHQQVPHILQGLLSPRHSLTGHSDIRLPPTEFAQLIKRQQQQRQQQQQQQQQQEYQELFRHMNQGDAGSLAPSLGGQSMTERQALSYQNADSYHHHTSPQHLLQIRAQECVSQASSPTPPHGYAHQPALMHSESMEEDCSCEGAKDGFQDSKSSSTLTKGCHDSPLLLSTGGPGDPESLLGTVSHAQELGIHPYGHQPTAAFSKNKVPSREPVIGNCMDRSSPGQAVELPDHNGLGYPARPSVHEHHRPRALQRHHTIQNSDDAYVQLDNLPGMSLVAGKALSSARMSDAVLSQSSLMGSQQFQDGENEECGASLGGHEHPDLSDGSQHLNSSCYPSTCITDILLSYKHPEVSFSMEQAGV
T3 sequence (P57059 whole entry): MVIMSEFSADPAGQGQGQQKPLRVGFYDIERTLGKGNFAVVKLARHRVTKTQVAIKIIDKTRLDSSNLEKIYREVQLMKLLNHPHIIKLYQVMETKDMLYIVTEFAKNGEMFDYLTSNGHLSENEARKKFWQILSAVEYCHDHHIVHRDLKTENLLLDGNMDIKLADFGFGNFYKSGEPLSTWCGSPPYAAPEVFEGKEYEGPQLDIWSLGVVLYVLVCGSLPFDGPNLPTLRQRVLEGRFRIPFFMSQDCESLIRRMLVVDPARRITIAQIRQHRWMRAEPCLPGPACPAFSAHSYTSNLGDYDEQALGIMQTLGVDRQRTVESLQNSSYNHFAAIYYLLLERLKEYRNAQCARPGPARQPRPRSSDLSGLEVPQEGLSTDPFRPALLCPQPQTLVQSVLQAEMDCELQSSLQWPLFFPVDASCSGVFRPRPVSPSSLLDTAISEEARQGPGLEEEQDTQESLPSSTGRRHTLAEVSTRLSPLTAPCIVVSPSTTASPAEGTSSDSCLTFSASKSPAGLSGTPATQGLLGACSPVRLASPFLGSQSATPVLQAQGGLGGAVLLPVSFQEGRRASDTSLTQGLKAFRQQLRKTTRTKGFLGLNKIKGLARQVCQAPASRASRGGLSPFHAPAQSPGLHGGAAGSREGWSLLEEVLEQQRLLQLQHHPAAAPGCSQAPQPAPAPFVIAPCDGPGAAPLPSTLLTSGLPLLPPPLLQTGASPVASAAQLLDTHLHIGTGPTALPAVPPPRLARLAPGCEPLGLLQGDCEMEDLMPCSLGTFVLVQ

Usually IC50 stands for the concentration that inhibits the measured activity by half. One may read the EC50 as the concentration at which the effect is half-maximal. A high value points to a need for much substance. For the compound `COc1cc(-n2cnc3cc(-c4cnn(C)c4)ccc32)cc(OC)c1C(=O)NCC(F)(F)F` [Cpd 25, 2,6-dimethoxy-4-[5-(1-methylpyrazol-4-yl)benzimidazol-1-yl]-N-(2,2,2-trifluoroethyl)benzamide], the IC50 on SIK3 lay within 0.01 to 10 nM; at SIK2 it was 0.01 to 10 nM; at SIK1, 10 to 100 nM. Also, the “IL-10 FCmax median” value in assay [1] is listed as “++ (>1.5-4.5)”. Moreover, the concentration giving a half-maximal response (EC50) in assay [2] and in assay [3] was 0.1 to 100 nM each time.
As for `COc1cc(-c2cnc3cc(-c4cnn(C)c4)ccn23)cc(OC(F)F)c1C(=O)NC1CC1` [Cpd 124, N-cyclopropyl-2-(difluoromethoxy)-6-methoxy-4-[7-(1-methylpyrazol-4-yl)imidazo[1,2-a]pyridin-3-yl]benzamide], the IC50 at SIK3, at SIK2 and at SIK1 was 0.01 to 10 nM each time. Also, the “IL-10 FCmax median” value in assay [1] is “++ (>1.5-4.5)”. Further, the EC50 in assay [2] and in assay [3] was 0.1 to 100 nM in each case.
For the compound `COc1cc(-n2cnc3cc(-c4cnn(CCN5CCOCC5)c4)ccc32)cc(OC(F)F)c1C(=O)NC1CC1` [compound 56, N-cyclopropyl-2-(difluoromethoxy)-6-methoxy-4-[5-[1-(2-morpholinoethyl)pyrazol-4-yl]benzimidazol-1-yl]benzamide], the IC50 on SIK3, on SIK2 and at SIK1 was 0.01 to 10 nM throughout. Also, the “IL-10 FCmax median” value in assay [1] is given as “++ (>1.5-4.5)”. In addition, the EC50 in assay [2] and in assay [3] was 0.1 to 100 nM each time.
In the case of `CCNC(=O)c1c(OC)cc(-n2cnc3cc(-c4cnn(CCN5CCOCC5)c4)ccc32)cc1OC(F)F` [compound 57, 2-(difluoromethoxy)-N-ethyl-6-methoxy-4-[5-[1-(2-morpholinoethyl)pyrazol-4-yl]benzimidazol-1-yl]benzamide], the concentration for half-maximal inhibition (IC50) against SIK3 was 0.01 to 10 nM; on SIK2 it was 0.01 to 10 nM; at SIK1 it was 10 to 100 nM. Moreover, the “IL-10 FCmax median” value in assay [1] was “++ (>1.5-4.5)”. Also, the EC50 lay in the range of 0.1 to 100 nM in assay [2] and 100 to 1000 nM in assay [3].
With `COc1cc(-n2cnc3cc(-c4cnn(C)c4)ccc32)cc(OC)c1C(=O)NCC(F)F` [compound 78, N-(2,2-difluoroethyl)-2,6-dimethoxy-4-[5-(1-methylpyrazol-4-yl)benzimidazol-1-yl]benzamide], the IC50 lay in the range of 0.01 to 10 nM against SIK3, 0.01 to 10 nM on SIK2 and 10 to 100 nM at SIK1. In addition, the “IL-10 FCmax median” value in assay [1] is listed as “++ (>1.5-4.5)”. The figures for the EC50 in assay [2] and in assay [3] were 0.1 to 100 nM and 100 to 1000 nM, respectively.
Regarding `COCCn1cc(-c2ccc3c(c2)ncn3-c2cc(OC)c(C(=O)NCC(F)(F)F)c(OC)c2)cn1` [compound 84, 2,6-dimethoxy-4-[5-[1-(2-methoxyethyl)pyrazol-4-yl]benzimidazol-1-yl]-N-(2,2,2-trifluoroethyl)benzamide], the IC50 against SIK3 lay in the range of 0.01 to 10 nM; at SIK2, 0.01 to 10 nM; on SIK1, 10 to 100 nM. In addition, in assay [1], the “IL-10 FCmax median” value is listed as “++ (>1.5-4.5)”. Besides, the EC50 in assay [2] and in assay [3] was 0.1 to 100 nM throughout.
For `COc1cc(-n2cnc3cc(-c4cnn(C5COC5)c4)ccc32)cc(OC)c1C(=O)NCC(F)(F)F` [compound 85, 2,6-dimethoxy-4-[5-[1-(oxetan-3-yl)pyrazol-4-yl]benzimidazol-1-yl)-N-(2,2,2-trifluoroethyl)benzamide], the IC50 at SIK3 was in the range of 0.01 to 10 nM; at SIK2, 0.01 to 10 nM; on SIK1 it was 10 to 100 nM. Also, the “IL-10 FCmax median” value in assay [1] was “++ (>1.5-4.5)”. In addition, the EC50 in assay [2] and in assay [3] was 0.1 to 100 nM throughout.
For the compound `COc1cc(-n2cnc3cc(-c4cnn(C5CC5)c4)ccc32)cc(OC)c1C(=O)NCC(F)(F)F` [compound 96, 4-[5-(l-cyclopropylpyrazol-4-yl)benzimidazol-1-yl]-2,6-dimethoxy-N-(2,2,2-trifluoroethyl)benzamide], the figures for the IC50 against SIK3, at SIK2 and on SIK1 were 0.01 to 10 nM, 0.01 to 10 nM and 10 to 100 nM, respectively. Further, in assay [1], the “IL-10 FCmax median” value is listed as “++ (>1.5-4.5)”. Besides, the EC50 in assay [2] and in assay [3] was 0.1 to 100 nM throughout.
Take `COc1cc(-c2cnn3cc(-c4cnn(C)c4)ccc23)cc(OC)c1C(=O)NCC(F)(F)F` [compound 99, 2,6-dimethoxy-4-[6-(1-methylpyrazol-4-yl)pyrazolo[1,5-a]pyridin-3-yl]-N-(2,2,2-trifluorocthyl)benzamide]: the IC50 against SIK3, at SIK2 and at SIK1 was 0.01 to 10 nM throughout. Besides, the EC50 in assay [2] and in assay [3] was 0.1 to 100 nM throughout.
Turning to `COc1cc(-n2cnc3cc(-c4cc(C)n[nH]4)ccc32)cc(OC)c1C(=O)NCC(F)(F)F` [compound 101, 2,6-dimethoxy-4-[5-(3-methyl-1H-pyrazol-5-yl)benzimidazol-1-yl]-N-(2,2,2-trifluoroethyl)benzamide], the IC50 against SIK3 lay within 0.01 to 10 nM; at SIK2, 0.01 to 10 nM; at SIK1 it was 10 to 100 nM. Also, the EC50 in assay [2] and in assay [3] was 0.1 to 100 nM each time.
Turning to `COc1cc(-c2cnc3cc(-c4cnn(C)c4)ccn23)cc(OC)c1C(=O)NC1CC1` [compound 102, N-cyclopropyl-2,6-dimethoxy-4-[7-(1-methylpyrazol-4-yl)imidazo[1,2-a]pyridin-3-yl]benzamide], the 50% inhibitory concentration (IC50) at SIK3, at SIK2 and on SIK1 was 0.01 to 10 nM each time. For the same compound, the “IL-10 FCmax median” value in assay [1] is recorded as “++ (>1.5-4.5)”. Further, the EC50 in assay [2] and in assay [3] was 0.1 to 100 nM throughout.
With `CCCn1cc(-c2ccc3c(c2)ncn3-c2cc(OC)c(C(=O)NCC(F)(F)F)c(OC)c2)cn1` [compound 103, 2,6-dimethoxy-4-[5-(1-propylpyrazol-4-yl)benzimidazol-1-yl]-N-(2,2,2-trifluoroethyl)benzamide], the half-inhibitory concentration (IC50) on SIK3, at SIK2 and at SIK1 was 0.01 to 10 nM each time. The EC50 in assay [2] and in assay [3] was 0.1 to 100 nM in each case.
For `COc1cc(-c2cnc3cc(-c4cnn(C)c4)cnn23)cc(OC)c1C(=O)NCC(F)(F)F` [compound 107], the IC50 lay within 0.01 to 10 nM against SIK3, 0.01 to 10 nM at SIK2 and 10 to 100 nM on SIK1. In addition, the values for the EC50 in assay [2] and in assay [3] were 0.1 to 100 nM and 100 to 1000 nM, respectively.
With `COc1cc(-n2cnc3cc(-c4cc(C)no4)ccc32)cc(OC)c1C(=O)NCC(F)(F)F` [compound 109, 2.6-dimethoxy-4-[5-(3-methylisoxazol-5-yl)benzimidazol-1-yl]-N-(2,2,2-trifluoroethyl)benzamide], the IC50 at SIK3, at SIK2 and on SIK1 was 10 to 100 nM each time. Also, the EC50 in assay [2] and in assay [3] was 100 to 1000 nM in each case.
As to `COc1cc(-c2cnc3cc(-c4cnn(C)c4)cnn23)cc(OC)c1C(=O)NC1CC1` [compound 112, N-cyclopropyl-2,6-dimethoxy-4-[7-(1-methylpyrazol-4-yl)imidazo[1,2-b]pvridazin-3-yl]benzamide], the IC50 against SIK3, on SIK2 and on SIK1 was 0.01 to 10 nM each time. Besides, in assay [1], the “IL-10 FCmax median” value is “+ (≤1.5)”. The EC50 in assay [2] and in assay [3] was 0.1 to 100 nM each time.
As for `CCNC(=O)c1c(OC)cc(-c2cnc3cc(-c4cnn(C)c4)ccn23)cc1OC(F)F` [compound 116, 2-(difluoromethoxy)-N-ethyl-6-methoxy-4-[7-(1-methylpyrazol-4-yl)imidazo[1,2-a]pyridin-3-yl]benzamide], the IC50 at SIK3, at SIK2 and on SIK1 was 0.01 to 10 nM in each case. Moreover, the “IL-10 FCmax median” value in assay [1] is “++ (>1.5-4.5)”. Besides, the concentration for a half-maximal effect (EC50) in assay [2] and in assay [3] was 0.1 to 100 nM each time.
As to `CCNC(=O)c1c(OC)cc(-c2cnn3cc(-c4cnn(C)c4)ccc23)cc1OC(F)F` [compound 117, 2-(difluoromethoxy)-N-ethyl-6-methoxy-4-[6-(1-methylpyrazol-4-yl)pyrazolo[1,5-a]pyridin-3-yl]benzamide], the IC50 against SIK3, at SIK2 and on SIK1 was 0.01 to 10 nM throughout. Also, the EC50 in assay [2] and in assay [3] was 0.1 to 100 nM throughout.
Regarding `COc1cc(-n2cnc3cc(-c4cnn(C)c4)ccc32)cc(OC)c1C(=O)N1CC(C)(C)C1` [compound 179, [2,6-dimcthoxy-4-[5-(1-methylpyrazol-4-yl)benzimidazol-1-yl]phenyl]-(3,3-dimethylazetidin-1-yl)methanone], the IC50 against SIK3, on SIK2 and at SIK1 was 10 to 100 nM in each case. Further, the EC50 in assay [2] and in assay [3] was 100 to 1000 nM throughout.
